Data set [1] has as its system RAW264.7. Kind of data set: Antiinflammatory activity in mouse RAW264.7 cells assessed as inhibition of LPS induced iNOS-dependent nitric oxide production at 10 ug/ml after 24 hrs by Griess assay relative to control. It is filed as functional. Particulars: RAW264.7, 24 h. A general note: Nitrite, measured by Griess reagent, commonly stands in for NO production.
Data set [2] in a line: Cytotoxicity against LPS-stimulated mouse RAW264.7 cells assessed as cell viability at 1.25 ug/ml after 24 hrs by MTT assay relative to control. It is filed as cell-based. As to conditions: LPS-stimulated RAW264.7 cells, read-out: Activity. In general terms: Formazan colour is commonly taken as a measure of viable cells.
Data set [3] has as its system RAW264.7. Kind of data set: Antiinflammatory activity in mouse RAW264.7 cells assessed as inhibition of LPS induced iNOS-dependent nitric oxide production at 2.5 ug/ml after 24 hrs by Griess assay relative to control. It is filed as functional. As to conditions: RAW264.7, 24 h.
In data set [4] the test system is RAW264.7. Kind of data set: Antiinflammatory activity in mouse RAW264.7 cells assessed as inhibition of LPS induced iNOS-dependent nitric oxide production at 5 ug/ml after 24 hrs by Griess assay relative to control. It is filed as functional. As to conditions: RAW264.7, 24 h.
The nature of data set [5]: Cytotoxicity against LPS-stimulated mouse RAW264.7 cells assessed as cell viability at 2.5 ug/ml after 24 hrs by MTT assay relative to control. Type of data set: cell-based. As to conditions: LPS-stimulated RAW264.7 cells, read-out: Activity.
The nature of data set [6]: Cytotoxicity against LPS-stimulated mouse RAW264.7 cells assessed as cell viability at 10 ug/ml after 24 hrs by MTT assay relative to control. Type of data set: cell-based. Particulars: LPS-stimulated RAW264.7 cells, read-out: Activity.
In data set [7] the test system is RAW264.7. Nature of the data set: Antiinflammatory activity in mouse RAW264.7 cells assessed as inhibition of LPS induced iNOS-dependent nitric oxide production at 1.25 ug/ml after 24 hrs by Griess assay relative to control. Type of data set: functional. Particulars: RAW264.7, 24 h.
The test system of data set [8] is RAW264.7. Nature of the data set: Antiinflammatory activity in mouse RAW264.7 cells assessed as inhibition of LPS induced iNOS-dependent nitric oxide production after 24 hrs by Griess assay. Type of data set: functional, cell-based. Particulars: RAW264.7, 24 h.
A short description of data set [9]: Cytotoxicity against LPS-stimulated mouse RAW264.7 cells assessed as cell viability at 5 ug/ml after 24 hrs by MTT assay relative to control. Particulars: LPS-stimulated RAW264.7 cells, read-out: Activity. Type of data set: cell-based.

Data on ten compounds can be found in ChEMBL document CHEMBL4004877, “Synthesis and biological evaluation of chalcone, dihydrochalcone, and 1,3-diarylpropane analogs as anti-inflammatory agents” (Bioorg Med Chem Lett, 2017).

Converted amounts (≈) assume the structure as drawn. Where only a bound is given, the exact number is not on record here.

What is called inhibition is the drop in the measured response relative to a control, in per cent. One may read the IC50 as the concentration needed to halve the response being measured.

In the case of `COc1ccc(C(=O)CCc2cccc(OC)c2OC)c(O)c1`, the inhibition at 10 µg/mL in [1] is 18.6%. The viability at 24 h, 1.25 ug/ml in data set [2] stood at 96.6%. Further, the inhibition at 2.5 µg/mL in data set [3] is 2.8%. In addition, the inhibition at 5 µg/mL in [4] worked out at 5.4%. Moreover, the viability at 24 h, 2.5 ug/ml in [5] came out at 95.2%. For the same compound, the viability at 24 h, 10 ug/ml in data set [6] amounted to 92.8%. Also, in [7], the inhibition at 1.25 µg/mL turned out to be 0.8%. Besides, in data set [8], the IC50 was above 10 µg/mL. In addition, in data set [9], the viability at 24 h, 5 ug/ml stood at 92.7%.

Regarding `COc1ccc(CCCc2ccc3c(c2)OCO3)c(O)c1`, in data set [1], the inhibition at 10 µg/mL amounted to 85.9%. Also, in data set [2], the viability at 24 h, 1.25 ug/ml came out at 97.5%. In data set [3], the inhibition at 2.5 µg/mL was 39.4%. Moreover, the inhibition at 5 µg/mL in data set [4] was found to be 54.1%. Moreover, the viability at 24 h, 2.5 ug/ml in data set [5] was 95.3%. The viability at 24 h, 10 ug/ml in data set [6] turned out to be 15.6%. Also, the inhibition at 1.25 µg/mL in [7] turned out to be 32.6%. In [8], the IC50 came out at 4.12 µg/mL (≈ 14.4 µM). Further, the viability at 24 h, 5 ug/ml in [9] amounted to 71.4%.

Regarding `COc1ccc(C(=O)/C=C/c2cccc(OC)c2OC)c(O)c1`, in data set [1], the inhibition at 10 µg/mL stood at 59.7%. Further, in data set [2], the viability at 24 h, 1.25 ug/ml turned out to be 94.2%. Besides, the inhibition at 2.5 µg/mL in data set [3] came out at 54.7%. In addition, the inhibition at 5 µg/mL in data set [4] came out at 55.3%. In addition, in data set [5], the viability at 24 h, 2.5 ug/ml stood at 72.9%. In addition, the viability at 24 h, 10 ug/ml in data set [6] is 60.3%. Besides, the inhibition at 1.25 µg/mL in data set [7] stood at 1.3%. Moreover, the IC50 in data set [8] was 2.35 µg/mL (≈ 7.48 µM). Also, the viability at 24 h, 5 ug/ml in [9] is 69.7%.

Consider `COc1ccc(OC)c(CCC(=O)c2cccc(O)c2)c1`, for which the inhibition at 10 µg/mL in data set [1] is 38.5%. Also, in [2], the viability at 24 h, 1.25 ug/ml was 98.6%. Further, the inhibition at 2.5 µg/mL in data set [3] was found to be 18.4%. Moreover, the inhibition at 5 µg/mL in data set [4] came out at 22.3%. Besides, the viability at 24 h, 2.5 ug/ml in data set [5] came out at 96.8%. The viability at 24 h, 10 ug/ml in [6] turned out to be 93.6%. Moreover, in data set [7], the inhibition at 1.25 µg/mL was 15.7%. Further, the IC50 in data set [8] was above 10 µg/mL. Also, in [9], the viability at 24 h, 5 ug/ml is 97.5%.

For the compound `COc1cc(C(=O)/C=C/c2cccc(OC)c2OC)ccc1O`, the inhibition at 10 µg/mL in [1] was found to be 46.2%. For the same compound, the viability at 24 h, 1.25 ug/ml in data set [2] was 97.5%. Also, the inhibition at 2.5 µg/mL in data set [3] came out at 3.1%. The inhibition at 5 µg/mL in data set [4] stood at 3.2%. In addition, in [5], the viability at 24 h, 2.5 ug/ml worked out at 94%. Also, the viability at 24 h, 10 ug/ml in data set [6] came out at 63.7%. Also, in data set [7], the inhibition at 1.25 µg/mL amounted to 3.9%. Moreover, the IC50 in [8] is above 10 µg/mL. Further, the viability at 24 h, 5 ug/ml in data set [9] was determined as 67.8%.

As to `COc1ccc(/C=C/C(=O)c2ccc(O)c(OC)c2)cc1`, the inhibition at 10 µg/mL in data set [1] came to 53.9%. Besides, the viability at 24 h, 1.25 ug/ml in data set [2] came out at 96.2%. For the same compound, in data set [3], the inhibition at 2.5 µg/mL came to 3.1%. Also, the inhibition at 5 µg/mL in [4] worked out at 51.7%. Moreover, the viability at 24 h, 2.5 ug/ml in data set [5] was 96%. Besides, in data set [6], the viability at 24 h, 10 ug/ml came out at 62.3%. For the same compound, the inhibition at 1.25 µg/mL in data set [7] is 7.7%. Also, the IC50 in [8] turned out to be 4.88 µg/mL (≈ 17.2 µM). For the same compound, the viability at 24 h, 5 ug/ml in data set [9] amounted to 82.9%.

Consider `COc1cccc(CCCc2cccc(O)c2)c1OC`, for which, in [1], the inhibition at 10 µg/mL was found to be 63.9%. The viability at 24 h, 1.25 ug/ml in [2] came out at 97.1%. For the same compound, the inhibition at 2.5 µg/mL in [3] stood at 18.4%. Moreover, the inhibition at 5 µg/mL in data set [4] is 18.3%. Besides, the viability at 24 h, 2.5 ug/ml in [5] is 97.4%. Besides, the viability at 24 h, 10 ug/ml in [6] stood at 69.6%. For the same compound, the inhibition at 1.25 µg/mL in [7] came to 16.3%. For the same compound, the IC50 in data set [8] is 8.09 µg/mL (≈ 29.7 µM). Moreover, in [9], the viability at 24 h, 5 ug/ml was determined as 96.1%.

`COc1ccc(CCC(=O)c2cccc(O)c2)cc1OC`: in data set [1], the inhibition at 10 µg/mL came to 55.8%. In data set [2], the viability at 24 h, 1.25 ug/ml came to 101%. For the same compound, in [3], the inhibition at 2.5 µg/mL came to 18.6%. For the same compound, the inhibition at 5 µg/mL in data set [4] was 46.2%. In addition, in data set [5], the viability at 24 h, 2.5 ug/ml came to 98.9%. Besides, in data set [6], the viability at 24 h, 10 ug/ml worked out at 97.9%. Further, in data set [7], the inhibition at 1.25 µg/mL was 5.4%. The half-inhibitory concentration (IC50) in data set [8] worked out at 6.58 µg/mL (≈ 23 µM). For the same compound, the viability at 24 h, 5 ug/ml in [9] came out at 98%.

With `COc1ccc(/C=C/C(=O)c2ccc(OC)c(OC)c2)cc1O`, the inhibition at 10 µg/mL in data set [1] amounted to 9.8%. Further, the viability at 24 h, 1.25 ug/ml in data set [2] amounted to 91.4%. Also, in [3], the inhibition at 2.5 µg/mL worked out at 1.8%. Also, the inhibition at 5 µg/mL in data set [4] was determined as 2.6%. Further, the viability at 24 h, 2.5 ug/ml in data set [5] was determined as 82.1%. The viability at 24 h, 10 ug/ml in data set [6] is 73.5%. In addition, the inhibition at 1.25 µg/mL in [7] worked out at 1.1%. For the same compound, the IC50 in data set [8] is above 10 µg/mL. In addition, the viability at 24 h, 5 ug/ml in [9] was 73%.

For `COc1ccc(C(=O)CCc2ccc3c(c2)OCO3)c(O)c1`, the inhibition at 10 µg/mL in data set [1] turned out to be 25.9%. The viability at 24 h, 1.25 ug/ml in data set [2] turned out to be 99.8%. Moreover, the inhibition at 2.5 µg/mL in data set [3] is 10.6%. For the same compound, in data set [4], the inhibition at 5 µg/mL was 14.1%. Further, in data set [5], the viability at 24 h, 2.5 ug/ml amounted to 96.8%. Further, in [6], the viability at 24 h, 10 ug/ml amounted to 94.4%. Moreover, the inhibition at 1.25 µg/mL in data set [7] is 5.1%. In addition, in data set [8], the IC50 is above 10 µg/mL. Moreover, the viability at 24 h, 5 ug/ml in data set [9] was 96.2%.
